Data: ChEMBL document CHEMBL1201862, “PubChem BioAssay data set” (2004)
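Grown in 96-well plates, cells were treated for 48 hours with each compound at five concentrations. Insufficient inhibition: endpoint recorded as highest concentration tested. GI50 is the concentration that inhibits growth by half.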 The source made the active and inactive calls. Rule as the data show it: active = GI50 up to about 1.1 µM and inactive = higher.

How the values were obtained:
Assay in all cases: inhibition of tumour cell growth, NCI panel, 48 h
[1] = tested on: U-251
[2] = tested on: OVCAR-5
[3] = tested on: SK-MEL-2
[4] = tested on: OVCAR-8
[5] = tested on: CCRF-CEM
[6] = tested on: IGROV-1
[7] = tested on: UACC-257
[8] = tested on: SNB-75
[9] = tested on: NCI-H226
[10] = tested on: A498
[11] = tested on: HOP-92
[12] = tested on: ACHN
[13] = tested on: SF-539
[14] = tested on: UACC-62
[15] = tested on: SK-MEL-5
[16] = tested on: NCI-H460
[17] = tested on: HOP-62
[18] = tested on: K562
[19] = tested on: SW-620
[20] = tested on: OVCAR-4
[21] = tested on: Malme-3M
[22] = tested on: HL-60
[23] = tested on: SF-295
[24] = tested on: DMS-114
[25] = tested on: 786-0
[26] = tested on: CAKI-1
[27] = tested on: UO-31
[28] = tested on: TK-10
[29] = tested on: NCI-H522
[30] = tested on: SK-MEL-28
[31] = tested on: MOLT-4
[32] = tested on: SF-268
[33] = tested on: RPMI-8226
[34] = tested on: SNB-78
[35] = tested on: DMS-273
[36] = tested on: SNB-19
[37] = tested on: COLO 205
[38] = tested on: KM-20L2
[39] = tested on: A549
[40] = tested on: NCI-H23
[41] = tested on: KM12
[42] = tested on: SR
[43] = tested on: DLD-1
[44] = tested on: HCC 2998
[45] = tested on: HT-29
[46] = tested on: RXF 393
[47] = tested on: LOX IMVI
[48] = tested on: HCT-116
[49] = tested on: SN12C
[50] = tested on: XF498
[51] = tested on: OVCAR-3
[52] = tested on: HCT-15
[53] = tested on: SK-OV-3
[54] = tested on: LXFL 529
[55] = tested on: M19-MEL
[56] = tested on: M14
[57] = tested on: EKVX

CCOc1ccccc1NC(=O)CCc1nnc2s/c(=C\CCc3ccccc3)c(=O)n12
GI50 [1]: > 100 µM (inactive) | GI50 [2]: > 100 µM (inactive) | GI50 [3]: > 100 µM (inactive) | GI50 [4]: > 100 µM (inactive) | GI50 [5]: > 100 µM (inactive) | GI50 [6]: > 100 µM (inactive) | GI50 [7]: > 100 µM (inactive) | GI50 [8]: > 100 µM (inactive) | GI50 [9]: > 100 µM (inactive) | GI50 [10]: > 100 µM (inactive) | GI50 [11]: > 100 µM (inactive) | GI50 [12]: > 100 µM (inactive) | GI50 [13]: > 100 µM (inactive) | GI50 [14]: > 100 µM (inactive) | GI50 [15]: > 100 µM (inactive) | GI50 [16]: > 100 µM (inactive) | GI50 [17]: > 100 µM (inactive) | GI50 [18]: > 100 µM (inactive) | GI50 [19]: > 100 µM (inactive) | GI50 [20]: > 100 µM (inactive) | GI50 [21]: > 100 µM (inactive) | GI50 [22]: > 100 µM (inactive) | GI50 [23]: > 100 µM (inactive) | GI50 [24]: > 100 µM (inactive) | GI50 [25]: > 100 µM (inactive) | GI50 [26]: > 100 µM (inactive) | GI50 [27]: > 100 µM (inactive) | GI50 [28]: > 100 µM (inactive) | GI50 [29]: > 100 µM (inactive) | GI50 [30]: > 100 µM (inactive) | GI50 [31]: > 100 µM (inactive) | GI50 [32]: > 100 µM (inactive) | GI50 [33]: > 100 µM (inactive) | GI50 [34]: > 100 µM (inactive) | GI50 [35]: > 100 µM (inactive) | GI50 [36]: > 100 µM (inactive) | GI50 [37]: > 100 µM (inactive) | GI50 [38]: > 100 µM (inactive) | GI50 [39]: > 100 µM (inactive) | GI50 [40]: > 100 µM (inactive) | GI50 [41]: > 100 µM (inactive) | GI50 [42]: > 100 µM (inactive) | GI50 [43]: > 100 µM (inactive) | GI50 [44]: > 100 µM (inactive) | GI50 [45]: > 100 µM (inactive) | GI50 [46]: > 100 µM (inactive) | GI50 [47]: > 100 µM (inactive) | GI50 [48]: > 100 µM (inactive) | GI50 [49]: > 100 µM (inactive) | GI50 [50]: > 100 µM (inactive) | GI50 [51]: > 100 µM (inactive) | GI50 [52]: > 100 µM | GI50 [53]: > 100 µM (inactive) | GI50 [54]: > 100 µM (inactive) | GI50 [55]: > 100 µM (inactive) | GI50 [56]: > 100 µM (inactive)

NS(=O)(=O)C1CCCCC1C(=O)NNC(=O)C(=O)Nc1nnc(S)[nH]1 (stereo not given)
GI50 [1]: > 100 µM (inactive) | GI50 [2]: > 100 µM (inactive) | GI50 [3]: > 100 µM (inactive) | GI50 [4]: > 100 µM (inactive) | GI50 [5]: > 100 µM (inactive) | GI50 [6]: > 100 µM (inactive) | GI50 [7]: > 100 µM (inactive) | GI50 [8]: > 100 µM (inactive) | GI50 [9]: > 100 µM (inactive) | GI50 [10]: > 100 µM (inactive) | GI50 [11]: > 100 µM (inactive) | GI50 [12]: > 100 µM (inactive) | GI50 [13]: > 100 µM (inactive) | GI50 [14]: > 100 µM (inactive) | GI50 [15]: > 100 µM (inactive) | GI50 [16]: > 100 µM (inactive) | GI50 [17]: > 100 µM (inactive) | GI50 [18]: > 100 µM (inactive) | GI50 [19]: > 100 µM (inactive) | GI50 [20]: > 100 µM (inactive) | GI50 [22]: > 100 µM (inactive) | GI50 [57]: > 100 µM (inactive) | GI50 [23]: > 100 µM (inactive) | GI50 [24]: > 100 µM (inactive) | GI50 [26]: > 100 µM (inactive) | GI50 [27]: > 100 µM (inactive) | GI50 [28]: > 100 µM (inactive) | GI50 [29]: > 100 µM (inactive) | GI50 [30]: > 100 µM (inactive) | GI50 [31]: > 100 µM (inactive) | GI50 [32]: > 100 µM (inactive) | GI50 [33]: > 100 µM (inactive) | GI50 [34]: > 100 µM (inactive) | GI50 [35]: > 100 µM (inactive) | GI50 [36]: > 100 µM (inactive) | GI50 [37]: > 100 µM (inactive) | GI50 [38]: > 100 µM (inactive) | GI50 [39]: > 100 µM (inactive) | GI50 [40]: > 100 µM (inactive) | GI50 [41]: > 100 µM (inactive) | GI50 [42]: > 100 µM (inactive) | GI50 [43]: > 100 µM (inactive) | GI50 [44]: > 100 µM (inactive) | GI50 [45]: > 100 µM (inactive) | GI50 [46]: > 100 µM (inactive) | GI50 [47]: > 100 µM (inactive) | GI50 [48]: > 100 µM (inactive) | GI50 [49]: > 100 µM (inactive) | GI50 [50]: > 100 µM (inactive) | GI50 [52]: > 100 µM | GI50 [53]: > 100 µM (inactive) | GI50 [54]: > 100 µM (inactive) | GI50 [55]: > 100 µM (inactive) | GI50 [56]: > 100 µM (inactive)
